Publication PMC6476959, “Novel 3,4-Dihydroisocoumarins Inhibit Human P-gp and BCRP in Multidrug Resistant Tumors and Demonstrate Substrate Inhibition of Yeast Pdr5” (Frontiers in Pharmacology, 2019)
Entries after “also recorded” stand apart in the source; their conditions may differ.

Experiments:
[1] = target: T1, P-gp (Homo sapiens, UniProt P08183); experiment: P-gp transport assay (calcein-AM) in HCT-15 cells; type: cell-based
T1 construct: endogenous in cells; host or cells: HCT-15 human colon adenocarcinoma cells
Procedure: The transport of calcein-AM by P-gp and its modulation by test compounds was analyzed in the P-gp-expressing HCT-15 cell line. 5 × 10^4 cells were seeded in black 96-well plates and incubated at 37°C and 5% CO2 for 24 h. The culture medium was removed and replaced by Hank’s balanced salt solution supplemented with 10 mM HEPES. Test compounds, 2.5 μM PSC833 (positive control) or 0.5% DMSO (negative control) were added in triplicates and incubated for 30 min at 37°C and 5% CO2. The substrate calcein-AM was added (final concentration 0.5 μM) and the fluorescence (excitation 485 nm, emission 520 nm) was measured over 3 h with the Infinite m1000 pro microplate reader (Tecan Group AG, Männedorf, Switzerland) at 37°C. The transport activity of P-gp was analyzed by determining the slope of the linear part of the fluorescence-time curve (0–30 min) using linear regression. Normalization of the data to PSC833 (100% inhibition) and DMSO (0% inhibition) was performed.

[2] = target: T2, Pdr5 (Saccharomyces cerevisiae, UniProt P33302); experiment: Pdr5 ATPase assay (oligomycin-sensitive) in plasma membrane preparations; type: biochemical; settings: highest concentrations (10 mM), in comparison to Pdr5 WT in the absence of any compound
T2 construct: effect on (A) the transport activity of Pdr5 WT and (B) their effect on the ATPase activity; made in house; host or cells: S. cerevisiae YRE1001 (pdr1-3 background), isolated plasma membranes
Procedure: Saccharomyces cerevisiae cells expressing Pdr5 WT or the E1036Q (EQ) mutant were cultured to an OD600 of 1.5 in YPD-media at 25°C. The nitrogen source was replenished by addition of a 10th volume of 5x YP (50 g/l yeast extract, 100 g/l peptone). The cells were grown to an OD of 3.5 and harvested (5000 ×g at 4°C for 15 min). The isolation of Pdr5 containing PMs was performed as described ([Kolaczkowski et al., 1996]; [Ernst et al., 2008]).
Oligomycin (OM)-sensitive ATPase activity was measured from 0.8 μg PM containing Pdr5 incubated with 2 mM ATP, 5 mM MgCl2 in 270 mM TRIS-glycine buffer (pH 9.5) and 2.5 μl of the test compounds or DMSO as a control in a total volume of 100 μl. To reduce the background activities, 0.2 mM ammonium molybdate, 10 mM NaN3 and 50 mM KNO3, respectively, were added ([Dufour et al., 1988]; [Goffeau and Dufour, 1988]). In a second assay, OM (20 μg/ml) was added to an otherwise identical setup. After incubation at 30°C for 20 min, the reaction was stopped by adding 25 μl of the reaction to 175 μl 40 mM H2SO4. The amount of released inorganic phosphate was determined by a colometric assay in 96-well plates ([Goffeau and Dufour, 1988]; [Decottignies et al., 1994]; [Wada et al., 2002]). The difference of both assays ( ± OM) corresponds to the specific ATPase activity of Pdr5 ([Ernst et al., 2008]).

[3] = tested on: P-gp expressing HCT-15 cells; experiment: Sensitization of HCT-15 cells to doxorubicin (co-treatment, cell viability); type: cell-based, human; settings: for Fold change of doxorubicin IC50: IC50 (drug alone)/IC50 (drug with modulator)
Procedure: (§1) Cytotoxic activity of test compounds was analyzed after 48 h using the CellTiter-Glo Luminescent Cell Viability Assay published previously ([Weber et al., 2017]) in 384-well plates with the following cell densities: A549, MCF-7/MX: 2 × 10^3 cells/well; HCT-15: 3 × 10^3 cells/well; H69AR: 5 × 10^3 cells/well. Pipetting was conducted with the CyBi-Well 96-channel simultaneous pipettor (Analytik Jena AG, Jena, Germany). For generation of dose-response curves and calculation of IC50 values, the four-parameter logistic model was applied.
(§2) The ability of identified inhibitors of P-gp and BCRP to sensitize HCT-15 or MCF-7/MX cells to chemotherapy was analyzed by co-treatment with test compounds and doxorubicin or mitoxantrone, respectively. Cells were incubated with a serial dilution of the chemotherapeutic drug alone or in combination with fixed concentrations of the test compounds or positive controls (2.5 μM PSC833 and 1 μM Ko143, respectively). Fold change of drug IC50 was calculated with the formula IC50 (drug alone)/IC50 (drug with modulator).

[4] = tested on: BCRP-expressing MCF-7/MX cells; experiment: Sensitization of MCF-7/MX cells to mitoxantrone (co-treatment, cell viability); type: cell-based, human; settings: for Fold change of mitoxantrone IC50: IC50 (drug alone)/IC50 (drug with modulator)
Procedure: as §1, §2

[5] = tested on: S. cerevisiae strain expressing Pdr5 EQ; experiment: Liquid drug assay, yeast strain expressing Pdr5 EQ mutant; type: cell-based, Saccharomyces cerevisiae; settings: serial dilutions, 48 h, 30°C, OD600
Procedure: (§3) The following S. cerevisiae yeast strain was used: YRE1001 (MATa ura3-52 trp1-1 leu2-3,112 his3-11,15 ade2-1 pdr1-3 pdr5pdr5promΔ::TRP1). S. cerevisiae was cultured in YPD medium (10 g/L yeast extract, 20 g/L peptone, 2% glucose) at 30°C and 200 rpm. The yeast strain has been described previously ([Ernst et al., 2008]; [Gupta et al., 2014]). Based on these studies it is evident that Pdr5 localizes to the PM and is present in approximately 10% of the overall membrane protein content of the PM.
(§4) The liquid drug assay was carried out in sterile 96-well plates. 50 μl of yeast cell culture at an OD600 of 0.15 were mixed with 193.75 μl YPD and 6.25 μl of the test compound or DMSO as a negative control. To distinguish between cytotoxic compounds and those which inhibit Pdr5 WT specifically, the Pdr5 substrate ketoconazole was added only to cultures expressing wild-type Pdr5 in a final concentration of 1 μg/ml. At this concentration, inhibition of Pdr5 would result in ketoconazole-mediated cell death. After 48 h at 30°C the growth was measured with an ELISA plate reader (BioRad, Hercules, CA, United States) at 595 nm.

[6] = tested on: S. cerevisiae strain expressing Pdr5 WT; experiment: Liquid drug assay, yeast strain expressing Pdr5 WT; type: cell-based, Saccharomyces cerevisiae; settings: serial dilutions, 48 h, 30°C, OD600
Procedure: as §3, §4

T1 sequence (P08183 whole entry): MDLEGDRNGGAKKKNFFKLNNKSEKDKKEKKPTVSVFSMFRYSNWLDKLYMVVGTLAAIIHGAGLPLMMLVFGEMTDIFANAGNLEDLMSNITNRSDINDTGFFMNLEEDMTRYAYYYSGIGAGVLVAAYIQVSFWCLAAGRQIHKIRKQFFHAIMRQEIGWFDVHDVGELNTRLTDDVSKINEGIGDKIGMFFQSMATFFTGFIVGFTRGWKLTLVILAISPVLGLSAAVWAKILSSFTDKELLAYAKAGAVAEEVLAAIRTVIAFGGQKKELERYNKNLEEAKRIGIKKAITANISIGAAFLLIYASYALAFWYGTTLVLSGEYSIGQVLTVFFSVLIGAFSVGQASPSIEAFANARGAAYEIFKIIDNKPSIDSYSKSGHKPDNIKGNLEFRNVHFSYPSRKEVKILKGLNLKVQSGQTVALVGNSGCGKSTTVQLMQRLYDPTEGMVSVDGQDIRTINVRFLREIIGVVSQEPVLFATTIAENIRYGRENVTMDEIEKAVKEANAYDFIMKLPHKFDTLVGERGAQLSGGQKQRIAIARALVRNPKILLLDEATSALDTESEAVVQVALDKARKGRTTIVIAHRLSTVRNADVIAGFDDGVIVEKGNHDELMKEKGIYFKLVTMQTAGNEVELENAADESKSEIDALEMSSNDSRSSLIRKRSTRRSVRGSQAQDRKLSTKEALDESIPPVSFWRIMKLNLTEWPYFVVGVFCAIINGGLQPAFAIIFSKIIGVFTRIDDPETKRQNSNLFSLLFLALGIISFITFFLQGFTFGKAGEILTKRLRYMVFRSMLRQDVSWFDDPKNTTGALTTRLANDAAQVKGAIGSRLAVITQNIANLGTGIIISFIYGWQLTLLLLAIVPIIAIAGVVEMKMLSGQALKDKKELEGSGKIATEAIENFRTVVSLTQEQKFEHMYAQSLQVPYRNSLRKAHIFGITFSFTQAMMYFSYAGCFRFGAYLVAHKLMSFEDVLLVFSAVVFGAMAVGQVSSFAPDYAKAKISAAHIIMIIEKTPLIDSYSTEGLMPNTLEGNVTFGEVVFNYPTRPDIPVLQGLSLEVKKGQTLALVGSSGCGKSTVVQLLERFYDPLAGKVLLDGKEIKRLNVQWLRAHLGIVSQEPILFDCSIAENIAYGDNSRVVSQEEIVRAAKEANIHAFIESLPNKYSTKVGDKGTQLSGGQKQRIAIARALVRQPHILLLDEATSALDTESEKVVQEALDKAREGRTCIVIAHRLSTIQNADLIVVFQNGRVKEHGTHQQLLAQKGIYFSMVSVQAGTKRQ
T2 sequence (P33302 whole entry): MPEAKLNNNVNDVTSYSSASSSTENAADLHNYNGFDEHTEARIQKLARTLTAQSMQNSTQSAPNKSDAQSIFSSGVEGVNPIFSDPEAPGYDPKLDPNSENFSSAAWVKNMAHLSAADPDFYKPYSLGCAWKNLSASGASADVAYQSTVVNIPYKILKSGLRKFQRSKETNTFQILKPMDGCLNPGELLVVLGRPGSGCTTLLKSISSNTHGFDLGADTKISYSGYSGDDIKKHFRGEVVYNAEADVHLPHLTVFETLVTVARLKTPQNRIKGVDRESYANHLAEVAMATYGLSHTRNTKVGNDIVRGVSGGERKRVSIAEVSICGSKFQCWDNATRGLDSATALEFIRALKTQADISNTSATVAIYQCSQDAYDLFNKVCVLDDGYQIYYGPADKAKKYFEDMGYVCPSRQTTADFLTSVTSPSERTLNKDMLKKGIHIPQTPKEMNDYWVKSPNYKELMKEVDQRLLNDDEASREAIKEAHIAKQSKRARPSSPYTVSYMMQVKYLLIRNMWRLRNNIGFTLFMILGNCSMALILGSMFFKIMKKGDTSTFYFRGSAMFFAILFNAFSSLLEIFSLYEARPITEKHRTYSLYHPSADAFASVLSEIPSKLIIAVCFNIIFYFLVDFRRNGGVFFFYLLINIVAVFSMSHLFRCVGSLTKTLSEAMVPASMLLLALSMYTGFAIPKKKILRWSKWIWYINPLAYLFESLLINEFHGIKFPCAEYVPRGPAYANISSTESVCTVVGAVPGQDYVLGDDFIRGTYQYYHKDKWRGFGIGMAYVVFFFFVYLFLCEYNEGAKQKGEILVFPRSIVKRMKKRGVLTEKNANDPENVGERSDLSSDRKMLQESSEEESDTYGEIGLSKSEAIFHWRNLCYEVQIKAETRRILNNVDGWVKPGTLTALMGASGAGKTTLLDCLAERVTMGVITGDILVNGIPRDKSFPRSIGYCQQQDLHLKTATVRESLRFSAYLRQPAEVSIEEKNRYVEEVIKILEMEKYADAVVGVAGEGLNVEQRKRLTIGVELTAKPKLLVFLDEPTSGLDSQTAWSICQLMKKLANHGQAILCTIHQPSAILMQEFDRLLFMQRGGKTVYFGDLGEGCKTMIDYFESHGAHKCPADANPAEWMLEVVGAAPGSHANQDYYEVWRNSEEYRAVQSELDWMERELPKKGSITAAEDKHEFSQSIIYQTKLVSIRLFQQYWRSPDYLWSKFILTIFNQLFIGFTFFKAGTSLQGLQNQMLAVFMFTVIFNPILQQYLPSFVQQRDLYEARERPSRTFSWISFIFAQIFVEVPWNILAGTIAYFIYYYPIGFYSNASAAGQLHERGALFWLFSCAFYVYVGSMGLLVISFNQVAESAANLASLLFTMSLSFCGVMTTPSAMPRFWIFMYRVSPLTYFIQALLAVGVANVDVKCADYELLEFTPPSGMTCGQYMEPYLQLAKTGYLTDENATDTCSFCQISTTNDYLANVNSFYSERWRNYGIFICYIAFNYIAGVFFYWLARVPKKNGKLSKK

Compound: COc1cc(O)c2c(c1)C[C@H](C)OC2=O [Angelicoin B (4), angelicoin B]
- Inhibition of P-gp (in words) [1]: did not differ significantly from those of derivative 14
- ATPase activity of Pdr5 WT inhibited to (initial screen) ([2]; listed as 4): nearly no effect
- ATPase activity of Pdr5 WT inhibited to (initial screen) ([2]; listed as angelicoin (4)): no effect
- ATPase activity of Pdr5 WT inhibited to (initial screen) ([2]; listed as angelicoin B (4)): no inhibitory effect

Compound: COc1cc(O)c2c(c1)CCOC2=O [Compound 14]
- Sensitization of HCT-15 cells to doxorubicin (in words) [3]: did not sensitize the cells to doxorubicin
- Fold change of doxorubicin IC50 ([3]; +20 μM of the modulator): 0.89
- Fold change of doxorubicin IC50 ([3]; +50 μM of the modulator): 0.80
- Sensitization of MCF-7/MX cells to mitoxantrone (in words) [4]: did not have a significant influence
- Fold change of mitoxantrone IC50 ([4]; +10 μM of the modulator): 1.01
- Fold change of mitoxantrone IC50 ([4]; +20 μM of the modulator): 0.77
- Fold change of mitoxantrone IC50 ([4]; +50 μM of the modulator): 0.78
- Relative inhibition of P-gp, span over the tested concentrations ([1]; different concentrations, normalized to PSC833): up to 10%
- ATPase activity of Pdr5 WT inhibited to (initial screen) [2]: nearly no effect; also recorded: no inhibitory effect

Compound: CCCCCC1Cc2cc(OC)cc(O)c2C(=O)O1 (centres unmarked) [Compound 16]
- Fold change of doxorubicin IC50 ([3]; +20 μM of the modulator): 0.98
- Fold change of doxorubicin IC50 ([3]; +50 μM of the modulator): 3.7
- Fold change of mitoxantrone IC50 ([4]; +10 μM of the modulator): 0.93
- Fold change of mitoxantrone IC50 ([4]; +20 μM of the modulator): 3.70
- Fold change of mitoxantrone IC50 ([4]; +50 μM of the modulator): 5.6
- inhibition at 10 μM ([1]; human, P-gp-expressing HCT-15 cells, probe calcein-AM (0.5 μM), 10 μM, normalized to 2.5 μM PSC833 (100%) and DMSO (0%), read-out: Relative inhibition of P-gp): 36.3 ± 5.3%
- inhibition at 50 μM ([1]; human, P-gp-expressing HCT-15 cells, probe calcein-AM (0.5 μM), 50 μM, normalized to 2.5 μM PSC833 (100%) and DMSO (0%), read-out: Relative inhibition of P-gp): 81.2 ± 2.7%

Compound: CCCCCC1Cc2cc(OC)cc(OC)c2C(=O)O1 (centres unmarked) [Compound 16a]
- Effect on growth of yeast strain expressing Pdr5 EQ mutant [5]: inhibited the growth of the mutant strain slightly at the highest tested concentration
- inhibition at 20 μM ([1]; human, P-gp-expressing HCT-15 cells, probe calcein-AM (0.5 μM), 20 μM, normalized to 2.5 μM PSC833 (100%) and DMSO (0%), read-out: Relative inhibition of P-gp): > 20%
- Effect on growth of yeast strain expressing Pdr5 WT [6]: no effect on the wild-type strain
